Patent publication US20020169101A1, “Treatment of sexual dysfunction” (priority 1999, published 2002)

Assays:
[1] = system: female rat sexual proceptivity; test: Female rat sexual proceptivity test (time investigating male vs female stimulus); assay type: in vivo
Protocol: (§1) Ovariectomised adult female Sprague Dawley rats (180-200 g, from Charles River) were housed in groups of 6 in a reversed lighting system of 12 h light:dark (lights off 7.00-19.00 h). Two weeks after ovariectomy they were used for sexual activity tests. The experiments started at least 5 h into the dark period.
Tests were carried out in a circular arena of 90 cm diameter, surrounded by a 30 cm high wall. Two small cages with wire-mesh front (15×15 cm) are fixed into the wall such that the front of the cage is <> with the wall and the 2 cages are opposite each other. They contained two stimuli animals: an intact sexually experienced male and a receptive female (ovariectomised, primed with 5 μg oestradiol benzoate dissolved in corn oil and injected subcutaneously 48 hours before the test and with 0.5 mg of progesterone four hours before the test). Sexually naive test and control animals were used. Forty eight hours before the tests, both the test and control animals were primed with 5 μg oestradiol benzoate. For animals used as positive controls, progesterone (0.5 mg/0.1 ml) was dissolved in corn oil and administered subcutaneously (s.c.), 4 h before the test. Test and control animals were introduced one at a time for 10 minute periods into the arena. During the 10 min test, the time that the test or positive control animal spent investigating each stimulus animal was noted. The arena was thoroughly cleaned between animals. The position of the male/female stimuli boxes was randomised between animals, in order to avoid place preference. The difference in the percentage of time spent investigating the male minus the female stimuli was calculated, out of the total time spent investigating stimuli animals.
Compound (1) was dissolved in 100% β-cyclodextrin and then diluted with saline to a final solution of 50% 2-hydroxypropyl-β-cyclodextrin. It was administered intraperitoneally (i.p.) at doses of 3 and 10 mg/kg, in a dosing volume of 1 ml/kg, 1 h before tests. Progesterone (0.5 mg/0.1 ml) was dissolved in corn oil and administered subcutaneously (s.c.), 4 h before test, as a positive control.
Ovariectomised adult female Sprague Dawley rats (180-200 g) were housed in groups of 5 in a reversed lighting system of 12 h light:dark (lights off 5.00-17.00 h). They were used for the experiments at least two weeks after ovariectomy. Forty eight hours before tests, the animals were primed with oestradiol benzoate (5 μg/[…] in corn oil, s.c.). On day 1, progesterone (0.5 mg/0.1 ml, in corn oil, s.c.) was administered to one of the groups 4 h before tests, as a positive control. Compound (1) (15 mg/kg, i.p.) was administered in 50% 2-hydroxypropyl-β-cyclodextrin, 1 h before tests. The test lasted 10 minutes and was carried out as described before. The difference in the percentage of time spent investigating the male minus the female stimuli was calculated, out of the total time spent investigating stimuli animals. Animals were submitted to a test on day 1 and on day 15. From day 2 to 14 the Compound (1) group received a daily injection of the compound (15 mg/kg, i.p.), while both the vehicle and the progesterone groups received an injection of vehicle. On day 15 the test took place again, as described for day 1.
Ovariectomised female rats (Sprague Dawley, obtained from Charles River, UK) were stereotaxically implanted (coordinates 0.89 mm behind Bregma, 1.3 mm lateral and 2.5 mm vertical) with stainless steel cannulae (6 mm long, O.D. 0.75 mm), held in place with dental cement. Animals were housed in groups of three and returned to a reversed lighting system of 12 h light:dark (lights off 5.00-17.00 h). Correct placement of the cannulae was assessed post-mortem. Rats were used for tests two weeks after ovariectomy (one week after cannulation). The experiments started at least 5 h into the dark period. […]

[2] = Plasma sexual hormone levels in ovariectomised female rats (radioimmunoassay); assay type: in vivo, rat; details: Compound (1) 3-10 mg/kg i.p. 1 h, progesterone 0.5 mg s.c. 4 h before blood collection
Protocol: Ovariectomised adult female Sprague Dawley rats (180-200 g) were housed in groups of 6 in a reversed lighting system of 12 h light:dark (lights off 7.00-19.00 h). They were used for the experiments at least two weeks after ovariectomy. Forty eight hours before tests, the animals were primed with oestradiol benzoate (5 μg/0.1 ml in corn oil, s.c.). Progesterone (0.5 mg/0.1 ml, in corn oil, s.c.) was administered 4 h before blood collection, as a positive control. Compound (1) (3-10 mg/kg, i.p.) was administered in 50% 2-hydroxypropyl-β-cyclodextrin, 1 h prior to blood collection. Blood was collected from the trunk, after decapitation. It was immediately centrifuged (3500 r.p.m., 4° C., 5 min) and the plasmas frozen until assayed for hormonal content, using commercially available radioimmunoassay kits (^125I-labelled hormones) for oestradiol, progesterone, LH, FSH and prolactin.

[3] = system: female rat sexual proceptivity (NMB-inhibited); test: Inhibition of female rat proceptivity by i.c.v. NMB and its antagonism; assay type: in vivo; details: progesterone 0.5 mg s.c. 4 h; NMB 100 ng i.c.v. 10 min before test in progesterone-treated rats; Compound (1) 15 mg/kg i.p. 1 h before NMB (FIG. 5)
Protocol: Ovariectomised female rats (Sprague Dawley, obtained from Charles River, UK) were stereotaxically implanted (coordinates 0.89 mm behind Bregma, 1.3 mm lateral and 2.5 mm vertical) with stainless steel cannulae (6 mm long, O.D. 0.75 mm), held in place with dental cement. Animals were housed in groups of three and returned to a reversed lighting system of 12 h light:dark (lights off 5.00-17.00 h). Correct placement of the cannulae was assessed post-mortem. Rats were used for tests two weeks after ovariectomy (one week after cannulation). The experiments started at least 5 h into the dark period. Forty eight hours before tests, the animals were primed with 5 μg oestradiol benzoate (OB) (s.c, in corn oil) and adapted to the apparatus (in the absence of stimuli animals) for 10 min on 2 consecutive days prior testing. The 10 min test was carried out as previously described. The difference in the percentage of time spent investigating male minus female was calculated, out of the total time spent investigating stimuli.
Progesterone (Prog, 0.5 mg/0.1 ml) was dissolved in corn oil and administered subcutaneously (s.c.), 4 h before test, to induce proceptive behaviour. Compound (1) (15 mg/kg, i.p.) was dissolved in 50% 2-hydroxypropyl-β-cyclodextrin in saline and administered 1 h before the i.c.v. administration. Neuromedin B was obtained from Bachem, UK. It was dissolved in isotonic saline and administered i.c.v. over a 30 sec period, with the aid of a pump set to deliver a flow of 10 μl/min, 10 min before tests. The dosing volume was 5 μl/rat. Each rat received a total amount of 100 ng.

[4] = system: female rat sexual receptivity; test: Female rat sexual receptivity test (lordosis quotient); assay type: in vivo; details: for lordosis quotient (LQ) vs LQ before administration: Compound (2) 10-100 mg/kg oral in PEG200, 1 h, quinelorane 6.25 μg/kg s.c., 90 min (FIG. 21)
Protocol: as §1
Compound (1) was dissolved in 100% β-cyclodextrin and then diluted with saline to a final solution of 50% 2-hydroxypropyl-β-cyclodextrin. It was administered intraperitoneally (i.p.) at a dose of 10 mg/kg, in a dosing volume of 1 ml/kg. Quinelorane (6.25 μg/kg) was dissolved in water and administered s.c. as positive control. Forty eight hours before testing, ovariectomised female rats (as described above), were primed with 5 μg oestradiol benzoate dissolved in corn oil and injected subcutaneously. […] The females were placed with a series of vigorous male rats and subjected to 10 mounts.
The lordotic response of the animal was recorded and expressed as a percentage of the mounts (i.e. lordosis quotient, LQ), as previously described. Animals showing LQ<20 were considered non-receptive and were included in the study. Each rat was tested prior to administration of the compound and then tested similarly post-injection. The pre-treatment times were 1 h for Compound (1) and vehicle (50% β-cyclodextrin, i.p.) or 90 min for quinelorane.
The above compound was dissolved in PEG200 vehicle and administered orally. Quinelorane dihydrochloride (LY 163,502, 6.25 μg/kg) was dissolved in water and administered subcutaneously (s.c.), as a positive control. Both compounds were administered in a 1 ml/kg volume.
Forty eight hours before tests, the animals were primed with 5 μg oestradiol benzoate (Sigma Chemical. Co. Ltd., UK) dissolved in corn oil and injected subcutaneously. The females were placed with a series of vigorous male rats and subjected to 10 mounts. The lordotic response of the animal was recorded and expressed as a percentage of the mounts (i.e. lordosis quotient, LQ). […] Animals showing higher LQ were not included in the study. […]

[5] = biological target: T1, human NMB receptor (BB1) (Homo sapiens, UniProt P28336); test: BB1 binding assay ([125I][Tyr4]bombesin displacement, CHO-K1 membranes); details: Table 1, human NMB receptor binding affinity; Ki from IC50 by Cheng-Prusoff; read-out: NMB Ki
T1 construct: expressed in transfected cells; membranes prepared from the cells
T1 sequence (P28336 whole entry): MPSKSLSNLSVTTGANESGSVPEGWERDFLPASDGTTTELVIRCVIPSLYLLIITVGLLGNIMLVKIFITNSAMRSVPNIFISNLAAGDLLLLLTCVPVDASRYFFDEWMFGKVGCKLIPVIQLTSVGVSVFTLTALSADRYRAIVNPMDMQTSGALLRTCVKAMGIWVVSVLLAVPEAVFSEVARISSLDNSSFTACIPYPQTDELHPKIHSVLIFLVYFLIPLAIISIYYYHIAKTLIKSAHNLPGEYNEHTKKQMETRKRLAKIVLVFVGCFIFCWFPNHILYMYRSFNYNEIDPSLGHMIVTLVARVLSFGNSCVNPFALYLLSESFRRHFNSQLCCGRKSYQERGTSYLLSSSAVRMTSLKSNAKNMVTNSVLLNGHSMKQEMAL
In short: (§2)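 Competition against <0.1 nM [125I][Tyr4]bombesin, 60 min for the NMB receptor and 90 min for the GRP receptor, using homogenised membranes of human-receptor-expressing CHO-K1 cells in pH 7.4 Tris buffer. Bound label was filtered and gamma-counted, with 1 μM bombesin as nonspecific. Ki values came from IC50 via Cheng-Prusoff.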

[6] = biological target: T2, human GRP receptor (BB2) (Homo sapiens, UniProt P30550); test: BB2 binding assay ([125I][Tyr4]bombesin displacement, CHO-K1 membranes); details: Table 1, human GRP receptor binding affinity; Ki from IC50 by Cheng-Prusoff; read-out: GRP Kj
T2 construct: expressed in transfected cells; membranes prepared from the cells
T2 sequence (P30550 whole entry): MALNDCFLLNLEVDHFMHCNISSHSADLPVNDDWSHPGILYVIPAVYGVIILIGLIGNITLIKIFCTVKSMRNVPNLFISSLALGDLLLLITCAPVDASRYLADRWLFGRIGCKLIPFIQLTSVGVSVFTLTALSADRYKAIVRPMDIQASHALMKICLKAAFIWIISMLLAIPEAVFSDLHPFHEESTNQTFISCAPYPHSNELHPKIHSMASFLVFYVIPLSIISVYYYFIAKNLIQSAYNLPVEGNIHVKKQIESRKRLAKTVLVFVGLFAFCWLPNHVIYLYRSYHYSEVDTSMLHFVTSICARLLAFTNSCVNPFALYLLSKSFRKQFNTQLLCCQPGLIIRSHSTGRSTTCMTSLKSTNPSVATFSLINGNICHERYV
In short: as §2

## CC(=O)[C@H]1CC[C@H]2[C@@H]3CCC4=CC(=O)CC[C@]4(C)[C@H]3CC[C@]12C [progesterone, reference compound]
[1]; Compound (1) 15 mg/kg i.p. 1 h before test, progesterone 0.5 mg s.c. 4 h before test (FIG. 3)
  proceptivity on day 1 vs vehicle: stimulatory effect on proceptivity
[2]; vs vehicle (FIG. 6)
  plasma levels of progesterone: significant increase in the progesterone plasma levels
[2]; vs vehicle (FIG. 9)
  plasma levels of LH: significant decrease in LH plasma levels
[3]
  proceptivity (percentage of time investigating male minus female stimulus): increased the percentage of time spent investigating the male stimulus

## CCCN1CCC[C@@H]2Cc3nc(N)ncc3C[C@H]21 [quinelorane, reference compound]
[4]
  lordosis quotient (LQ) vs LQ before administration: significantly (P<0.01) increased the LQ

## COc1ccc(C2(CNC(=O)[C@](C)(Cc3c[nH]c4ccccc34)Nc3nc(-c4ccc([N+](=O)[O-])cc4)co3)CCCCC2)nc1 [Example 9, (S)-3-(1H-Indol-3-yl)-N-[1-(5-methoxy-pyridin-2-yl)-cyclohexylmethyl]-2-methyl-2-[4-(4-nitro-phenyl)-oxazol-2-ylamino]-propionamide]
[1]; oral, 30-100 mg/kg in PEG 200, 1 h before test (FIG. 19)
  percentage of time spent investigating the male stimulus: dose-dependently (30-100) increased the percentage of time spent investigating the male stimulus
[1]; p.o., 3-30 mg/kg in 0.5% methyl cellulose, 1 h before test (FIG. 20)
  percentage of time spent investigating the male stimulus: dose-dependently (3-30 mg/kg) increased the percentage of time spent investigating the male stimulus
other
  melting point: 100 to 105 °C
[5]
  Ki: 4 nM
[6]
  Ki: 24 nM
[4]
  lordosis quotient (LQ) vs LQ before administration: dose-dependently (10-100 mg/kg) increased the LQ
[4]; single oral administration, 10-100 mg/kg in PEG200, 1 h after administration
  MED for increase of lordosis quotient (LQ): 100 mg/kg

## neuromedin B [NMB]
[3]
  proceptivity (percentage of time investigating male minus female stimulus): significantly reduced proceptivity
